Results as given in US20240207265A1, “TREATMENT OF CNS DISEASES WITH sGC STIMULATORS” (Tisento Therapeutics Inc., priority 2021, published 2024).

Assays:
[1] = test system: sGC; assay: cGMP neuronal cell-based assay (rat primary neurons); details: rat primary hippocampal neurons, DETA-NO 10 μM or 30 μM, cGMP by LC-MS/MS; read-out: sGC Neuron EC50
Method: Rat primary neurons were isolated from fetuses of 18-day pregnant Sprague-Dawley females. The fetuses were collected in Hanks' balanced salt solution (HBSS) and brains were rapidly removed. The cerebral hippocampi were isolated and mechanically fragmented. Further tissue digestion was performed with 0.25% (wt/vol) trypsin solution in HBSS without Ca2+ and Mg2+ for 15 min at 37° C. After trypsination, cells were washed and resuspended in neurobasal medium supplemented with 0.5 mM L-glutamine, 12.5 uM glutamic acid, 2% B-27 and 100 U/mL penicillin, and 100 μg/mL streptomycin. Cells were plated at a density of 26×10^3 or 3×10^4 or 4×10^4 cells/well in a poly-D-lysine coated 384-well flat clear-bottom plate (Corning Cat No 354662). Cells were incubated 6-7 days at 37° C. in a humidified chamber with 5% CO2. Media was removed and cells were washed 1× with HBSS containing Ca2+ and Mg2+, and replaced with 40 uL HBSS containing 0.5 mM IBMX, and incubated for 15 minutes at 37° C. 10 uL of a 5× stock of test compounds with diethylenetriamine NONOate (DETA-NO) was added. Final concentration of DETA-NO was either 10 μM or 30 μM. Cells were incubated for 20 min at 37° C. Medium was removed, 50 uL of ice-cold 10% acetic acid was added, and incubated for 60 minutes at 4° C. Following centrifugation at 4° C. for 5 minutes at 1000×g to pellet cell debris, the supernatant was aspirated to a clean plate and the samples were analyzed for cGMP content. cGMP concentrations were determined from each sample using LC-MS/MS.
Concentration response data were analyzed using a 4-parameter fit (log (agonist) vs. response-variable slope). The EC50 was interpolated from the curve fit and is defined as the concentration at which the compound elicits 50% of its maximal response. When the experiment was carried out multiple times for a given compound, the geometrical mean of all experiments is reported.

[2] = Rat cerebrospinal fluid (CSF) pharmacokinetics; type: in vivo; details: male, Sprague-Dawley, rat CSF/unbound plasma
Method: PK in rats was determined following oral dosing. For the oral (PO) experiments, a group of 6 male Sprague-Dawley rats with an indwelling catheter placed in the cisterna magna were used. The PO group was dosed with 3.0, or 10 mg/kg of a compound formulated as a solution in PEG400 or suspension in 0.5% Tween 80 and 0.5% Methylcellulose in water. PO doses were administered by oral gavage and delivered to the stomach using a syringe and gavage tube. Following oral dosage administration, the gavage tube was flushed with approximately 0.5 mL of water to ensure complete delivery of the full dose.
Plasma samples were collected as follows: samples of CSF and blood were collected at 1 hour, 2, and optionally at 4 hours post-dosing. CSF samples (0.05 mL) were collected through the intracisternal catheter. Blood samples (0.25 mL) were collected through tail nick sampling. These samples were kept on ice until processed for plasma. Blood samples were centrifuged at 3200 rpm for 5 minutes at approximately 5° C. within 1 hour of collection. Plasma was directly transferred to individual Eppendorf tubes (0.125 mL). Plug caps were placed on the tubes and the tubes frozen at approximately −70° C. and stored until analysis. Plasma and CSF was collected and analyzed for the presence of a compound.
The compound in question and the internal standard were extracted from plasma by precipitation and from CSF by either precipitation or dilution. Samples were analyzed using liquid chromatography (LC) with tandem mass spectrometric detection (MS/MS) using electrospray ionization. The standard curve ranged from 0.1 to 1000 ng/mL. Results of the compounds described herein in this assay are illustrated in Table G below (for a 10 mg/kg dose and/or 3 mg/kg of the compound). Compound concentrations from several animals were combined to give the geometrical mean at each specific dosage and timepoint.
Kp,uu is defined as the concentration ratio of unbound drug in CSF to unbound drug in plasma. Unbound drug in plasma (or free plasma concentration) is calculated by multiplying the total plasma concentration by the unbound fraction as determined by plasma protein binding. The CSF concentration is then divided by the free plasma concentration to determine the Kp,uu. (See e.g., Di et al., J. Med. Chem., 56, 2-12 (2013))

Structure (SMILES)	EC50 [1]	Kp uu at 1 h ([2]; PO 3 mg/kg)	Kp uu at 2 h ([2]; PO 3 mg/kg)	Kp uu at 4 h ([2]; PO 3 mg/kg)	Kp uu at 1 h ([2]; PO 10 mg/kg)	Kp uu at 2 h ([2]; PO 10 mg/kg)	Kp uu at 4 h ([2]; PO 10 mg/kg)
Oc1nc(-c2cn3ccnc3c(Cc3cccc(F)c3F)n2)ncc1F [Compound I-4, 2-(8-(2,3-Difluorobenzyl)imidazo[1,2-a]pyrazin-6-yl)-5-fluoropyrimidin-4-ol]	≤ 100 nM	≤ 1	1 to 2	1 to 2	–	–	–
Cc1cc(F)c(Cc2nc(-c3ncc(F)c(O)n3)cn3c(F)cnc23)cc1F [Compound I-18]	–	1 to 2	1 to 2	1 to 2	–	–	–
Cc1cc(F)c(Cc2nc(-c3ncc(F)c(O)n3)cn3ncnc23)cc1F [Compound I-19, 5-Fluoro-2-(8-(2,5-difluoro-4-methylbenzyl)-[1,2,4]triazolo[1,5-a]pyrazin-6-yl)pyrimidin-4-ol]	≤ 100 nM	–	–	–	–	–	–
Oc1nc(-c2cn3ccnc3c(Cc3ccccc3F)n2)ncc1F [Compound I-21]	≤ 100 nM	–	–	–	–	–	–
Oc1nc(-c2cn3ncnc3c(Cc3ccccc3F)n2)ncc1F [Compound I-23]	≤ 100 nM	–	–	–	–	–	–

Further lines, results first:

EC50 [1]	Kp uu at 1 h ([2]; PO 3 mg/kg)	Kp uu at 2 h ([2]; PO 3 mg/kg)	Kp uu at 4 h ([2]; PO 3 mg/kg)	Kp uu at 1 h ([2]; PO 10 mg/kg)	Kp uu at 2 h ([2]; PO 10 mg/kg)	Kp uu at 4 h ([2]; PO 10 mg/kg)	Structure (SMILES)
100 to 1000 nM	–	–	–	–	–	–	Oc1nc(-c2cn3ccnc3c(Cc3ccccc3)n2)ncc1F [Compound I-2, 2-(8-Benzylimidazo[1,2-a]pyrazin-6-yl)-5-fluoropyrimidin-4-ol]
≤ 100 nM	2 to 3	2 to 3	2 to 3	–	–	–	Oc1nc(-c2cn3c(F)cnc3c(Cc3cc(F)ccc3F)n2)ncc1F [Compound I-5]
≤ 100 nM	> 3	> 3	> 3	> 3	> 3	2 to 3	Cc1cc(F)c(Cc2nc(-c3ncc(F)c(O)n3)cn3ccnc23)cc1F [Compound I-14, 5-fluoro-2-(8-(2,5-difluoro-4-methylbenzyl)imidazo[1,2-a]pyrazin-6-yl)pyrimidin-4-ol]
100 to 1000 nM	–	–	–	–	–	–	Cc1cc(F)c(Cc2nc(-c3nccc(O)n3)cn3ccnc23)cc1F [Compound I-15, 2-(8-(2,5-difluoro-4-methylbenzyl)imidazo[1,2-a]pyrazin-6-yl)pyrimidin-4-ol]
≤ 100 nM	> 3	> 3	> 3	–	–	–	Oc1nc(-c2cn3ccnc3c(Cc3cc(F)ccc3F)n2)ncc1Cl [Compound I-16, 5-chloro-2-(8-(2,5-difluorobenzyl)imidazo[1,2-a]pyrazin-6-yl)pyrimidin-4-ol]
≤ 100 nM	2 to 3	2 to 3	2 to 3	1 to 2	2 to 3	2 to 3	Oc1nc(-c2cn3ccnc3c(Cc3cc(F)ccc3F)n2)ncc1F [Compound I-20, 5-fluoro-2-(8-(2,5-difluorobenzyl)imidazo[1,2-a]pyrazin-6-yl)pyrimidin-4-ol]
